System: Human immunodeficiency virus 1
Test: Concentration required to inhibit 50% viral production of human immunodeficiency virus type 1 (HIV-1-IIIB)
Assay type: functional, organism-based

Structure (SMILES) | IC50 [nM]
CC(=O)c1ccc(C)cc1NC(C(N)=O)c1c(Cl)cccc1Cl (stereo not given) [LOVIRIDE] | 100
O=C1c2ccccc2C2(c3ccccc3)SCCN12 (stereo not given) | 16
NC(=O)C(Nc1ccccc1[N+](=O)[O-])c1c(Cl)cccc1Cl (stereo not given) | 33
Cc1c(O)nc(OC2CCCCC2)nc1Cc1ccccc1 | 4700
Cc1cc(C)cc(Cc2c(C(C)C)c(=O)[nH]c(=O)n2COCCO)c1 | 2.7
O=C1Nc2ccc(Cl)cc2[C@@](C#CC2CC2)(C(F)(F)F)N1 | 0.36
CC(C)=CCN1Cc2c(Cl)ccc3[nH]c(=S)n(c23)C[C@@H]1C [TIVIRAPINE] | 3
C=CCN1Cc2cccc3[nH]c(=O)n(c23)CC1C (stereo not given) | 62000
CCCCCC=C(c1cc(Br)c(OC)c(C(=O)OC)c1)c1cc(Br)c(OC)c(C(=O)OC)c1 | 16000
CC(C)=CCOc1cc(NC(=S)c2ccoc2C)ccc1Cl [UC 781] | 9
O=C1Nc2ccc(Cl)cc2[C@@](C#CC2CC2)(C(F)(F)F)O1 [EFAVIRENZ] | 2.93
Cc1c(Sc2ccccc2)n(COCCO)c(=O)[nH]c1=O [HEPT] | 7000
S=C(NCCc1ccccc1)Nc1nccs1 | 1300
CC(C)Nc1cccnc1N1CCN(C(=O)c2cc3cc(NS(C)(=O)=O)ccc3[nH]2)CC1 [DELAVIRDINE] | 1100
O=C1Nc2ccc(Cl)cc2C(/C=C/C2CC2)(C(F)(F)F)N1 (stereo not given) | 0.4
CC1=C(C(=O)Nc2ccc(Cl)c(C(=O)OC(C)C)c2)SCCO1 | 42
Fc1cccc(F)c1CC/N=C(\S)Nc1ccc(Br)cn1 | 10
O=C(O)C1=CC(=C(c2ccc(O)c(C(=O)O)c2)c2ccc(O)c(C(=O)O)c2)C=CC1=O [AURINTRICARBOXYLIC ACID] | 5000

Structure (SMILES) | IC50 [nM]
S=C(NCCc1ccccn1)Nc1ccc(Br)cn1 [TROVIRDINE] | 20
CC(C)OC(=O)c1cc(NC(=S)OC(C)C)ccc1Cl | 29
CCN1c2cc([N+](=O)[O-])ccc2N(C)C(=O)c2cccnc21 | 400
Cc1c(Sc2ccccc2)n(COCCO)c(=S)[nH]c1=O | 1600
COc1ccc2c(c1)N(C(=O)OC(C)C)C(CSC)C(S)=N2 (stereo not given) | 6
Cc1ccnc2c1NC(=O)c1cccnc1N2C1CC1 [NEVIRAPINE] | 200
CC(=O)c1ccccc1NC(C(N)=O)c1c(Cl)cccc1Cl (stereo not given) | 26
CC(C)c1c(Cc2ccccc2)n(COCc2ccccc2)c(=O)[nH]c1=O | 6
CC1Oc2c3c(c4c(-c5ccccc5)cc(=O)oc4c2C(O)C1C)OC(C)(C)C=C3 (stereo not given) | 1400
CC(=O)c1ccc(C)cc1NC(C(N)=O)c1c(Br)cccc1Br (stereo not given) | 420
CC(C)c1nc(COC(N)=O)n(Cc2ccncc2)c1Sc1cc(Cl)cc(Cl)c1 [CAPRAVIRINE] | 3.1
CCC1=CC(NCc2nc3c(C)ccc(C)c3o2)C(=O)N=C1C (stereo not given) | 50
CCN1c2ncccc2-c2ncc(C)n2-c2ccc(OC)nc21 | 190
CCOCn1c(Cc2ccccc2)c(C(C)C)c(=O)[nH]c1=O [EMIVIRINE] | 8
CN1C(=O)c2ccccc2C1(N)c1ccccc1 (stereo not given) | 10000
CC(C)=CCN1Cc2cc(Cl)cc3nc(S)n(c23)CC1C (stereo not given) [TIBO] | 33
Fc1cccc(Cl)c1CCNC(=S)Nc1nccs1 | 50

Source: ChEMBL document CHEMBL1143567, “Hierarchical database screenings for HIV-1 reverse transcriptase using a pharmacophore model, rigid docking, solvation docking, and MM-PB/SA” (J Med Chem, 2005)
